# Test results as given in publication PMC12467033, “Exploring the Inhibitory Potential of Six Porphyrin Compounds Against α-Amylase and α-Glucosidase Linked to Diabetes” (Biomolecules, 2025).
# Key:
# α-glucosidase [1] = biological target: T1, α-glucosidase (Saccharomyces cerevisiae, UniProt P53341); experiment: α-Glucosidase inhibitory activity assay (pNPG substrate); assay type: biochemical; conditions: 37 °C
# Description: The experimental groups were supplemented with different concentrations of porphyrin compounds, followed by the addition of 100 μL of 5 mmol/L pNPG. After thorough mixing, the samples were pre-incubated at 37 °C for 10 min. Subsequently, the reaction was terminated by adding 0.1 mol/L of sodium carbonate (Na2CO3) solution. Following a 3 min reaction period, the absorbance of the solutions at 405 nm was measured using a microplate reader. The inhibition rate (%) was subsequently calculated using Formula (1).
# Using the enzyme inhibition rate as the y-axis and the inhibitor concentration as the x-axis, the IC50 value was calculated through linear regression fitting with GraphPad Prism software (5.0).
# α-glucosidase [2] = biological target: T1, α-glucosidase; experiment: Fluorescence quenching, binding and thermodynamics with α-glucosidase; conditions: for binding constants K: 310 K; for quenching mechanism of α-glucosidase fluorescence: Stern–Volmer plots; for quenching mechanism of α-glucosidase fluorescence / ΔH^0 / ΔS^0: 298–310 K; for ΔH^0 / ΔS^0: Van’t Hoff
# Description: In the α-amylase experiment, a series of porphyrins and amylase (200 U/L) were mixed in a volume ratio of 1:1. In the α-glucosidase experiment, the glucosidase concentration was 400 U/L, mixed in a volume ratio of 1:1; the samples were maintained at three different temperatures (298, 304, and 310 K) for 30 min, with excitation at 280 nm and emission scanning from 300 to 500 nm.
# The Stern–Volmer equation [35] was adopted to determine the quenching mechanisms between six porphyrin compounds and both enzymes in the experimental group, with Formula (6):(6) F0/F=1+Ksv[Q]=1+Kqτ0[Q]
# The Stern–Volmer equation was adapted based on experimental data to more accurately characterize the quenching behavior [36], with Formula (7):(7) F0/F=e^Ksv[Q]=e^Kqτ0[Q]
# In the formula, the fluorescence quenching ratio was calculated as F0/F, where F0 corresponds to the emission intensity of pure α-amylase solution (control) and F denotes the intensity measured after the incremental addition of porphyrin ligands. KSV and Kq denote the Stern–Volmer quenching constant and the bimolecular quenching rate constant, respectively, τ0 (10^−8 s) is the average fluorescence lifetime of the fluorophore in the absence of quencher, and [Q] indicates the concentration of porphyrin compounds.
# Due to the presence of an internal filtration effect, a decrease in the fluorescence intensity of the system may occur. Therefore, all fluorescence data were corrected using Formula (8) to eliminate the internal filtration effect.(8) Fcor=Fobse^(Aex+Aem)/2
# The evaluation of the interaction forces between porphyrin compounds and the two enzymes can be achieved by calculating thermodynamic parameters. When both ΔH^0 and ΔS^0 are positive, the predominant interaction force is hydrophobic. When both ΔH^0 and ΔS^0 are negative, the main forces are hydrogen bonding and van der Waals forces. When ΔH^0 < 0 and ΔS^0 > 0, the primary interaction is electrostatic attraction.
# The thermodynamic parameters were calculated using Formulas (9) and (10), and then the Van’t Hoff plot for the interactions between the porphyrin compounds and the two enzymes was generated by plotting lnKa on the Y-axis versus 1/T on the X-axis.(9) lnKa=−ΔH^0/RT+ΔS^0/R (10) ΔG^0=ΔH^0−TΔS^0=−RTlnKa
# α-amylase = biological target: T2, α-amylase (Sus scrofa, UniProt P00690); experiment: Three-dimensional fluorescence spectroscopy of α-amylase complexes; conditions: 298 K; TAPP 2.5, THPP 10, TCPP 10, Fe–TCPP 12.5, Ni–TCPP 17.5, Cu–TCPP 10 μg/mL
# T2 sequence (P00690 16-511): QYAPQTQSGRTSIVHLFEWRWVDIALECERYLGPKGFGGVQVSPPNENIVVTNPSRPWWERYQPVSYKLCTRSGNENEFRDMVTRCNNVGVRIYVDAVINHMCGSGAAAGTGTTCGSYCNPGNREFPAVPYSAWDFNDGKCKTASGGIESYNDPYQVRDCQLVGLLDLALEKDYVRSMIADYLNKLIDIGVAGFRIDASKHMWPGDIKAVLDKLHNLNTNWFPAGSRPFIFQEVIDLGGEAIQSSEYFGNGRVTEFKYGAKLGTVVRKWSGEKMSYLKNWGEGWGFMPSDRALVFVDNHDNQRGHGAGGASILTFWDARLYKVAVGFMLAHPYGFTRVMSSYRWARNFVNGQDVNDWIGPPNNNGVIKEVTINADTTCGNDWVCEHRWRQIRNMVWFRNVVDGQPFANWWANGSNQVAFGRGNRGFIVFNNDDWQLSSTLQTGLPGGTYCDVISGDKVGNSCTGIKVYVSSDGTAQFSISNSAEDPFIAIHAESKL
# Description: At 298 K, with excitation wavelengths ranging from 200 to 600 nm (2 nm increments) and emission wavelengths from 200 to 600 nm, the influence of small molecules on enzyme conformation was assessed by examining peaks in 3D fluorescence spectra [41].
# α-glucosidase [3] = biological target: T1, α-glucosidase; experiment: FTIR secondary structure analysis of α-GLU complexes; conditions: enzyme–porphyrin molar ratio 1:2, amide I band
# Description: A molar ratio of 1:2 (α-amylase/α-glucosidase)–porphyrin solution was placed in a cryocentrifugal concentrator and the dried solid sample was mixed with dry KBr and measured using a Nicolet IS-50 FTIR Spectrometer (ThermoFisher, Waltham, MA, USA) with a scanning range of 4000–400 cm^−1 and a resolution of 4 cm^−1. The overlapping peaks in the amide I band (1700–1600 cm^−1) were further analyzed into multiple feature sub-peaks, and quantitative analysis of the relative content of various secondary structures in proteins using curve fitting methods was performed.
# HepG2 cells = experiment: MTT cytotoxicity assay; assay type: cell-based, human; conditions: 24 h
# Description: The cytotoxicity of six porphyrin compounds against human hepatocellular carcinoma HepG2 cells was evaluated using the MTT assay. HepG2 cells were seeded into 96-well plates at a density of 5000 cells per well and cultured for 24 h at 37 °C in a 5% CO2 incubator. Then, 100 µL of sample solutions at various concentrations (50, 100, and 200 µg/mL) was added to the experimental wells, with blank control wells and solvent control wells also included. The cells were further incubated for 24 h. After incubation, 10 µL of MTT solution (5 mg/mL) was added to each well, and the plates were incubated for another 4 h. Subsequently, 100 µL of Formazan solubilization solution was added to each well, followed by gentle mixing. The plates were returned to the incubator and maintained until complete dissolution of Formazan crystals was observed under a microscope. The absorbance at 570 nm was measured using a microplate reader (Meigu Molecular Instrument Company, Shanghai, China), and the survival rate of HepG2 cells was calculated.(12) Cell viability=As-Ab/Ac-Ab×100%
# In the formula, As represents the absorbance of the sample well, Ac denotes the absorbance of the blank control well (without the drug), and Ab refers to the absorbance of the solvent control well (devoid of both cells and the drug).
# T1 sequence (P53341 whole entry): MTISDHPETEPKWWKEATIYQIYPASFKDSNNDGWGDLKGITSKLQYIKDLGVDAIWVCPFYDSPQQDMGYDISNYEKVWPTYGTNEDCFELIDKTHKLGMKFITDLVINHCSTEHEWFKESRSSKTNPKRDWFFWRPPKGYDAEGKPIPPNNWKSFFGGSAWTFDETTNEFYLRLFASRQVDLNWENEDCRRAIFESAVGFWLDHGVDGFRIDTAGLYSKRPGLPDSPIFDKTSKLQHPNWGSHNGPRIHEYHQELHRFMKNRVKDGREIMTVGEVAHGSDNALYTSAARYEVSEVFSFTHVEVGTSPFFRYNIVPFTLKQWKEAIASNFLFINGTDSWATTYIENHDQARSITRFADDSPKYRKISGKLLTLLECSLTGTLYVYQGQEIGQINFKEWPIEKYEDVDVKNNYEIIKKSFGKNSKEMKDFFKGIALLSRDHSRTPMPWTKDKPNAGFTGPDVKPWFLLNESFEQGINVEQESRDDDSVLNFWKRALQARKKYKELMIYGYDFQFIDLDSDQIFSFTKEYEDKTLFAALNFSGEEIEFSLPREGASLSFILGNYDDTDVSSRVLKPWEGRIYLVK
Compound,IC50 α-GLU (α-glucosidase [1]),binding constants K (α-glucosidase [2]),quenching mechanism of α-glucosidase fluorescence (α-glucosidase [2]),Ka (binding constant) (α-glucosidase [2]; T 298 K),Kq (α-glucosidase [2]; T 298 K),Ksv (α-glucosidase [2]; T 298 K),n (number of binding sites) (α-glucosidase [2]; T 298 K),ΔG^0 (α-glucosidase [2]; T 298 K),Ka (binding constant) (α-glucosidase [2]; T 304 K),Kq (α-glucosidase [2]; T 304 K),Ksv (α-glucosidase [2]; T 304 K),n (number of binding sites) (α-glucosidase [2]; T 304 K),ΔG^0 (α-glucosidase [2]; T 304 K),Ka (binding constant) (α-glucosidase [2]; T 310 K),Kq (α-glucosidase [2]; T 310 K),Ksv (α-glucosidase [2]; T 310 K),n (number of binding sites) (α-glucosidase [2]; T 310 K),ΔG^0 (α-glucosidase [2]; T 310 K),ΔH^0 (α-glucosidase [2]),ΔS^0 (α-glucosidase [2]),also measured
"O=C(O)c1ccc(-c2c3nc(c(-c4ccc(C(=O)O)cc4)c4ccc([nH]4)c(-c4ccc(C(=O)O)cc4)c4nc(c(-c5ccc(C(=O)O)cc5)c5ccc2[nH]5)C=C4)C=C3)cc1.[Ni+2] [Ni–TCPP, nickel (II) meso-tetra (4-carboxyphenyl) porphine]",6.58 ± 0.21 mg/L,(1.83 ± 0.01) × 10^5 L·mol^−1,static quenching,2.34 ± 0.04 ×10^5 L/mol,17.73 ± 0.15 ×10^12 L/mol/s,17.73 ± 0.15 ×10^4 L/mol,1.03,-30.63 ± 0.13 kJ/mol,2.09 ± 0.02 ×10^5 L/mol,14.23 ± 0.09 ×10^12 L/mol/s,14.23 ± 0.09 ×10^4 L/mol,1.04,-30.96 ± 0.06 kJ/mol,1.83 ± 0.01 ×10^5 L/mol,12.31 ± 0.08 ×10^12 L/mol/s,12.31 ± 0.08 ×10^4 L/mol,1.03,-31.23 ± 0.07 kJ/mol,-15.84 ± 0.05 kJ/mol,49.67 ± 0.08 J/mol/k,"Peak 1 Fluorescence Intensity (α-amylase): 225.2; Peak 2 Fluorescence Intensity (α-amylase): 9.012; Random Coil (α-glucosidase [3]): 26.76 ± 0.07%; α-Helix (α-glucosidase [3]): 19.75 ± 0.07%; β-Antiparallel (α-glucosidase [3]): 1.88 ± 0.01%; β-Sheet (α-glucosidase [3]): 13.68 ± 0.04%; β-Turn (α-glucosidase [3]): 37.94 ± 0.10%; cell viability (HepG2 cells; HepG2, 50–200 μg/mL): above 88%"
"O=C(O)c1ccc(-c2c3nc(c(-c4ccc(C(=O)O)cc4)c4ccc([nH]4)c(-c4ccc(C(=O)O)cc4)c4nc(c(-c5ccc(C(=O)O)cc5)c5ccc2[nH]5)C=C4)C=C3)cc1.[Cu+2] [Cu–TCPP, copper (II) meso-tetra (4-carboxyphenyl)porphyrin]",25.33 ± 0.55 mg/L,(0.69 ± 0.01) × 10^5 L·mol^−1,static quenching,55.21 ± 0.11 ×10^5 L/mol,7.35 ± 0.09 ×10^12 L/mol/s,7.35 ± 0.09 ×10^4 L/mol,1.44,-38.46 ± 0.08 kJ/mol,7.38 ± 0.04 ×10^5 L/mol,6.74 ± 0.03 ×10^12 L/mol/s,6.74 ± 0.03 ×10^4 L/mol,1.25,-34.15 ± 0.05 kJ/mol,0.69 ± 0.01 ×10^5 L/mol,5.05 ± 0.02 ×10^12 L/mol/s,5.05 ± 0.02 ×10^4 L/mol,1.03,-28.70 ± 0.04 kJ/mol,-280.76 ± 0.13 kJ/mol,−812.45 ± 0.17 J/mol/k,"Peak 1 Fluorescence Intensity (α-amylase): 313.1; Peak 2 Fluorescence Intensity (α-amylase): 16.48; Random Coil (α-glucosidase [3]): 25.05 ± 0.07%; α-Helix (α-glucosidase [3]): 23.65 ± 0.03%; β-Antiparallel (α-glucosidase [3]): 2.59 ± 0.01%; β-Sheet (α-glucosidase [3]): 10.93 ± 0.05%; β-Turn (α-glucosidase [3]): 37.78 ± 0.09%; cell viability (survival rate) (HepG2 cells; HepG2, 200 μg/mL): 43.13 ± 5.53%; cell viability (HepG2 cells; HepG2, 50–100 μg/mL): above 80%"
